# Where two headings read alike, the source gives them in different places. Marks after values point to notes of the source that are not given here. Positions of bridges follow the written chain, without caps; N, C: chain ends. Non-standard residues stand in square brackets, D forms with d. Residues, ends and D or L forms follow the SMILES beside them. No end group written: not given here.
# How the values were obtained:
# [1] = tested on: IL8 induced THP-1 migration; experiment: THP-1 trans-well migration assay, IL-8 as chemoattractant; assay type: cell-based, human; conditions: for % inhibition at 100 μM versus IL8, THP-1 migration: n.s. = no statistically significant inhibition
# Description: To determine whether an agent inhibits a chemokine-induced activity, such as macrophage recruitment, varying amounts of the agent are mixed with cells in the presence of a known chemoattractant. For example, a range of known concentrations of an agent, e.g., a chemokine peptide, is incubated with a defined number (e.g., 10^4-10^6) of human THP-1 monocyte cells in individual wells of the top compartment of a trans-well plate. Chemokine (such as MCP-1, MIP1α, IL8 or SDF-1α), at a concentration known to cause significant migration of THP-1 cells in the trans-well migration assay, is placed in the lower compartment (FIG. 1). Cells are then incubated at 37° C. for a period sufficient to allow migration, e.g., 4 hours. After incubation, the cells are gently removed from the top of the filter with a pipette, 20 μl of 20 mM EDTA in simple PBS is added into each top well, and incubated for 20 minutes at 4° C. The filter is carefully flushed with media using a gentle flow, and removed. A standard curve consisting of a two-fold dilution series of THP-1 cells (in 29 μl) is prepared to accurately quantify the number of cells that have migrated. Migrated cells are stained with 3 μl of MTT stock dye solution which is added directly into each well (5 mg/ml in RPMI-1640 without phenol red, Sigma Chemical Co.) and incubated at 37° C. for 4 hours. The media is carefully aspirated from each well, and the converted dye is solubilized by 20 μl of DMSO. Absorbance of converted dye is measured at a wavelength of 595 nm using an ELISA plate reader. The number of migrated cells in each well is then determined by interpolation of the standard curve (see also Imai et al., J. Biol. Chem., 272, 15036 (1997)).
# For this assay, THP-1 cells were maintained at a density of 4×10^5 cells per ml in RPMI-1640 supplemented with 10% fetal calf serum+20 μM 2-mercaptoethanol. Chemotaxis was induced in a 96-well disposable chemotaxis chamber fitted with a […] polycarbonate filter (PVP free, ChemoTX, Neuroprobe Inc., Cabin John). Twenty-nine μl of chemoattractant (recombinant human chemokine; 50 ng/ml, i.e., 5.9 nM) or control (100 ng/ml TGFβ) was added to the lower compartment of each well. The framed filter was aligned with the holes in the corner of the filter frame and placed over the wells. Five×10^4 THP-1 cells in 25 μl of RPMI-1640 were added to the upper compartment. Peptides were dissolved in Milli Q water and then serially diluted in culture medium. In most cases, the serially diluted peptides were added to the upper compartment of the chemotaxis chamber. The chamber was incubated at 37° C. in a humidified atmosphere of 5% CO2 for 4 hours.
# After incubation, the cells were gently removed from the top of the filter with a pipette, 20 μl of 20 mM EDTA in PBS was added into each top well, and the mixture was incubated for 20 minutes at 4° C. The filter was then carefully flushed with media using a gentle flow, and removed. A standard curve was prepared to accurately quantify the number of THP-1 cells that had migrated. The curve was based on a two-fold dilution series of THP-1 cells (top standard 100,000 cells in 29 μl). Cells which had migrated, and in separate wells, the cells in the standards, were stained with 3 μl of MTT stock solution which was added directly into each well (5 mg/ml in RPMI 1640 without phenol red, Sigma Chemical Co.) and incubated at 37° C. for 4 hours. The media was carefully aspirated from each well, and the converted dye was solubilized by 20 μl of DMSO. Absorbance of converted dye was measured at a wavelength of 595 nm using an ELISA plate reader. The number of cells that had migrated in each well was determined by interpolation of the standard curve.
# [2] = tested on: chemokine receptors on THP-1 cells; experiment: Binding to chemokine receptors on THP-1 cells; set-up: species or system human
# Description: In general, specific binding is calculated as the amount of labeled agent bound in the absence of cold competitor minus the amount of labeled agent bound in the presence of cold competitor. The amount of specific binding in the presence of varied amounts of cold competitor can be used to determine the association constant for the agent, as well as the number of binding sites on the cell for the agent, using, for example, Scatchard Analysis. The agent may be labeled by radiolabeling (e.g., iodination) or with a suitable biochemical tag (e.g., biotin) or by addition of a photoactivatable crosslinking group. Agents with an association constant lower than 100 μM (i.e., which bind more strongly than an agent with an association constant of 100 μM) and which have at least about 2,500, preferably at least about 10,000, and more preferably greater than 25,000, binding sites per cell for at least one cell type which expresses a chemokine receptor, fall under the scope of this invention. THP-1 cells have at least about 5,000 MCP-1 receptors/cell.
# For example, monocytes are suspended in RPMI 1640 medium without bicarbonate containing 0.2% bovine serum albumin and 0.1% azide. Radiolabeled chemokine peptide is incubated with 1-2×10^6 cells, e.g., THP-1 cells, in the presence or absence of increasing concentrations of unlabeled chemokine (MCP-1, MCP-3, MCP-4, RANTES or MIP-1α) for 15 minutes at 37° C. in a 96-well plate in a final volume of 0.2 ml (e.g., PBS+0.5% FCS). After the incubation, 0.5 ml of ice-cold wash buffer (20 mM Tris, 0.5 M NaCl, pH 7.4) is added, and cells are collected onto a polyethyleneimine-treated Whatman GF/C filter using a Brandall cell harvester. Filters are washed with 4 ml of cold wash buffer, and the radioactivity bound to the filters is counted in a γ-counter.
# For Scatchard analysis, the absorbance readings at 450 nm were calibrated, by reference to a standard curve in which known amounts of labeled peptide were coupled to derivatized sepharose beads (activated thiol-sepharose 4B; Sigma T8512) via the cysteine residue in each peptide. Briefly, known amounts (1 fmol to 1 pmol) of biotin-labeled peptide were incubated with 1 mg of activated thiol-sepharose beads in 100 μl of PBS at 37° C. for 1 hour. Free activated thiols were then blocked by addition of cysteine to a final concentration of 10 mM. The peptide-conjugated beads were then washed 5 times in PBS and treated exactly as for the cells described above. The absorbance at 450 nm obtained when a known amount of peptide was coupled to the beads was used to construct a standard curve which was used to convert the absorbance readings obtained with cells into number of molecules of labeled peptide which had bound.
# [3] = tested on: chemokine-induced THP-1 migration; experiment: THP-1 trans-well migration assay, panel of chemokines (MCP-1, MIP1α, IL-8, SDF1α); assay type: cell-based, human; conditions: for effect on THP-1 migration induced by the chemokine panel, in words: IL-8, SDF1α; for CC SPECIFICITY: average inhibitory ED50 versus SDF1 and IL8 divided by average inhibitory ED50 versus MCP-1 and MIP1α
# [4] = n.s. = no statistically significant inhibition (p > 0.05)
molecule,measurement,setting,value
SYRRITSSKCPKEAV [peptide 2(1-15)[MCP-1]],"% inhibition at 100 μM versus IL8, THP-1 migration",[1],n.s.
same,"ED50 versus IL8, inhibition of THP-1 migration",[1]; [4],n.s.
same,"AVERAGE ED50, peptide 2 family: estimated ka for binding to THP-1 cells",[2],2^e μM
same,association constant (ka) for binding to THP-1 cells,[2],2 µM
same,"number of binding sites per cell, THP-1 cells",[2],"130,000 per cell"
same,association constant for chemokine receptors on THP-1 cells,[2]; listed as peptide 2,250 nM
same,association constant for chemokine receptors on THP-1 cells,[2]; listed as peptide 2(1-15)[MCP1],300 nM
same,"effect on THP-1 migration induced by the chemokine panel, in words","[3]; MCP-1, MIP1α",no significant effect
EICADPKQKWVQ [peptide 3(1-12)[MCP-1]],"% inhibition at 100 μM versus IL8, THP-1 migration",[1],103%
same,EC50,"[1]; n.s. = no statistically significant inhibition (p > 0.05), read-out: ED50 versus IL8, inhibition of THP-1 migration",14 ± 1 µM
same,"number of binding sites per cell, THP-1 cells",[2],1000 per cell
same,association constant (ka) for binding to THP-1 cells,[2]; listed as Peptide 3,about 10 μM
same,association constant (ka) for binding to THP-1 cells,[2]; listed as peptide 3,7 µM
same,Kd,[2]; read-out: affinity constant for binding to THP-1 cells in the presence of 100 μM peptide 2,8 µM
same,% inhibition at 100 μM of migration induced by any of the chemokines tested,"[3]; 100 μM, THP-1",> 99%
same,EC50,"[3]; average inhibitory ED50 for inhibition of THP-1 migration induced by each of the chemokines, read-out: AVERAGE ED50",10 µM
same,CC SPECIFICITY,[3],1.5
same,selectivity ratio (CC versus CXC chemokines),[3]; greater than 1 = greater inhibition of CC chemokines relative to CXC chemokines,1.5
"C=CCCCCCCCCC(=O)N[C@H]1CCC(=O)NC1=O [A-I (NR58.4), [3S]-3-(undec-10-enoylamino)piperidine-2,6-dione]",EC50,"[1]; Homo sapiens, THP-1, read-out: ED50, IL-8 chemotaxis assay",< 0.01 µM
NCCCC[C@H](NC(=O)[C@H](CCC(N)=O)NC(=O)[C@@H](N)CCCCN)C(=O)O [KQK],"ED50 versus IL8, inhibition of THP-1 migration",[1]; [4],n.s.
same,"number of binding sites per cell, THP-1 cells",[2],"about 15,000 per cell"
same,association constant for chemokine receptors on THP-1 cells,[2]; range printed with mixed units,500 nM-1 μM
same,specificity for the cognate chemokine over all the other chemokines tested,"[3]; KQK MCP-1, SEE MIP1-α",more than 100 fold
same,Chemokine antagonist,"[3]; active against at least one of IL-8, SDF-1α, MCP-1, MIP1α",+++++
same,CC SPECIFICITY,[3],>100
same,EC50,"[3]; footnote f, KQK MCP-1, SEE MIP1α, KLK SDF1, KEN IL8, read-out: ED50 of a tripeptide against the one chemokine it is highly specific for",6 µM
CC[C@@H](C)[C@H]1NC(=O)[C@@H](CCC(N)=O)NC(=O)[C@H](N)CSSC[C@H](C(N)=O)NC(=O)[C@@H](CC(C)C)NC(=O)[C@@H](CC(=O)O)NC(=O)[C@H]2CCCN2C(=O)[C@@H](CCCCN)NC(=O)[C@@H](CCC(N)=O)NC(=O)[C@@H](CCCCN)NC(=O)[C@@H](Cc2c[nH]c3ccccc23)NC1=O (H-[dC][dQ][dI][dW][dK][dQ][dK][dP][dD][dL][dC]-NH2; disulfide 1-11; N-terminus assumed),association constant for chemokine receptors on THP-1 cells,[2],100 to 500 nM
same,"number of binding sites per cell, THP-1 cells",[2],"about 150,000 per cell"
same,"effect on THP-1 migration induced by the chemokine panel, in words","[3]; MCP-1, MIP1α","inhibited THP-1 cell migration induced by MCP-1, MIP1α, IL-8, and SDF1, with very similar ED50s"

# From patent US7989466B2, “Methods to inhibit or augment an inflammatory response” (Cambridge Enterprise Limited, priority 1999, dated 2011)
